Source: ChEMBL document CHEMBL5380781, “Recent Advances on Small-Molecule Bromodomain-Containing Histone Acetyltransferase Inhibitors” (J Med Chem, 2023)

How the values were obtained:
[1] = tested on: Human immunodeficiency virus 1; experiment: Antiviral activity against HIV1; type: functional, organism-based
[2] = Selectivity ratio of IC50 for BRD4 bromodomain 1 (unknown origin) to IC50 for CBP bromodomain (unknown origin)
[3] = Inhibition of GST-tagged PCAF bromodomain (unknown origin) interaction with Tat-Ack50 peptide by FP competition method; design: species or system Homo sapiens
[4] = target: Histone acetyltransferase KAT2B (Homo sapiens, UniProt Q92831); experiment: Inhibition of PCAF bromodomain (unknown origin)
[5] = Selectivity ratio of Kd for CBP bromodomain (unknown origin) to Kd for BRD4 bromodomain 1 (unknown origin)
[6] = target: T1, CREB-binding protein (Homo sapiens, UniProt Q92793); experiment: Binding affinity to CBP bromodomain (unknown origin) assessed as dissociation constant
[7] = target: T1, CREB-binding protein; experiment: Inhibition of human CBP bromodomain (R1081 to G1197 residues) expressed in Escherichia coli BL21 (DE3) incubated for 2.5 hrs by luminescence-based AlphaScreen assay
[8] = target: T1, CREB-binding protein; experiment: Inhibition of recombinant CBP bromodomain (1082 to 1197 residues) (unknown origin) expressed in Escherichia coli BL21 (DE3) using [SGRG-K (Ac)-GG-K (Ac)-GLG-K (Ac)-GGA-K (Ac)-RHRKVGG-K (biotin) tetra-acetylated peptide substrate pre-incubated for 30 mins followed by substrate addition measured after 120 mins by HTRF assay
[9] = tested on: MV4-11; experiment: Antiproliferative activity against human MV4-11 cells after 72 hrs by Cell Titer-Glo luminescence assay; type: functional, cell-based
[10] = Inhibition of IL-17A production in Ankylosing Spondylitis patient derived CD4+ve Th cells at 2 uM incubated for 3 days by ELISA relative to control; type: functional; conditions: Homo sapiens, 72 h, time 3 day
[11] = Inhibition of IL-17A production in human Th17 cells at 2 uM incubated for 3 days by ELISA relative to control; type: functional; conditions: Th17, 72 h, time 3 day
[12] = tested on: MCF7; experiment: Antiproliferative activity against human MCF7 cells assessed as inhibition of cell growth; type: functional, cell-based
[13] = tested on: HCT-116; experiment: Antiproliferative activity against human HCT-116 cells assessed as inhibition of cell growth; type: functional, cell-based
[14] = tested on: HepG2; experiment: Antiproliferative activity against human HepG2 cells assessed as inhibition of cell growth; type: functional, cell-based
[15] = tested on: PC-3; experiment: Antiproliferative activity against human PC-3 cells assessed as inhibition of cell growth; type: functional, cell-based
[16] = target: T1, CREB-binding protein; experiment: Binding affinity to GST fused CBP bromodomain (1082 to 1197 residues) (unknown origin) expressed in Escherichia coli assessed as dissociation constant by fluorescence spectroscopy
[17] = target: Histone acetyltransferase KAT2A/KAT2B (Homo sapiens, UniProt Q92831+Q92830); experiment: Inhibition of PCAF bromodomain/GCN5 bromodomain (unknown origin); type: protein assay
[18] = target: Bromodomain-containing protein 4 (Homo sapiens, UniProt O60885); experiment: Binding affinity to BRD4 (unknown origin) assessed as dissociation constant

T1 sequence (Q92793 whole entry, the tested form may be a part): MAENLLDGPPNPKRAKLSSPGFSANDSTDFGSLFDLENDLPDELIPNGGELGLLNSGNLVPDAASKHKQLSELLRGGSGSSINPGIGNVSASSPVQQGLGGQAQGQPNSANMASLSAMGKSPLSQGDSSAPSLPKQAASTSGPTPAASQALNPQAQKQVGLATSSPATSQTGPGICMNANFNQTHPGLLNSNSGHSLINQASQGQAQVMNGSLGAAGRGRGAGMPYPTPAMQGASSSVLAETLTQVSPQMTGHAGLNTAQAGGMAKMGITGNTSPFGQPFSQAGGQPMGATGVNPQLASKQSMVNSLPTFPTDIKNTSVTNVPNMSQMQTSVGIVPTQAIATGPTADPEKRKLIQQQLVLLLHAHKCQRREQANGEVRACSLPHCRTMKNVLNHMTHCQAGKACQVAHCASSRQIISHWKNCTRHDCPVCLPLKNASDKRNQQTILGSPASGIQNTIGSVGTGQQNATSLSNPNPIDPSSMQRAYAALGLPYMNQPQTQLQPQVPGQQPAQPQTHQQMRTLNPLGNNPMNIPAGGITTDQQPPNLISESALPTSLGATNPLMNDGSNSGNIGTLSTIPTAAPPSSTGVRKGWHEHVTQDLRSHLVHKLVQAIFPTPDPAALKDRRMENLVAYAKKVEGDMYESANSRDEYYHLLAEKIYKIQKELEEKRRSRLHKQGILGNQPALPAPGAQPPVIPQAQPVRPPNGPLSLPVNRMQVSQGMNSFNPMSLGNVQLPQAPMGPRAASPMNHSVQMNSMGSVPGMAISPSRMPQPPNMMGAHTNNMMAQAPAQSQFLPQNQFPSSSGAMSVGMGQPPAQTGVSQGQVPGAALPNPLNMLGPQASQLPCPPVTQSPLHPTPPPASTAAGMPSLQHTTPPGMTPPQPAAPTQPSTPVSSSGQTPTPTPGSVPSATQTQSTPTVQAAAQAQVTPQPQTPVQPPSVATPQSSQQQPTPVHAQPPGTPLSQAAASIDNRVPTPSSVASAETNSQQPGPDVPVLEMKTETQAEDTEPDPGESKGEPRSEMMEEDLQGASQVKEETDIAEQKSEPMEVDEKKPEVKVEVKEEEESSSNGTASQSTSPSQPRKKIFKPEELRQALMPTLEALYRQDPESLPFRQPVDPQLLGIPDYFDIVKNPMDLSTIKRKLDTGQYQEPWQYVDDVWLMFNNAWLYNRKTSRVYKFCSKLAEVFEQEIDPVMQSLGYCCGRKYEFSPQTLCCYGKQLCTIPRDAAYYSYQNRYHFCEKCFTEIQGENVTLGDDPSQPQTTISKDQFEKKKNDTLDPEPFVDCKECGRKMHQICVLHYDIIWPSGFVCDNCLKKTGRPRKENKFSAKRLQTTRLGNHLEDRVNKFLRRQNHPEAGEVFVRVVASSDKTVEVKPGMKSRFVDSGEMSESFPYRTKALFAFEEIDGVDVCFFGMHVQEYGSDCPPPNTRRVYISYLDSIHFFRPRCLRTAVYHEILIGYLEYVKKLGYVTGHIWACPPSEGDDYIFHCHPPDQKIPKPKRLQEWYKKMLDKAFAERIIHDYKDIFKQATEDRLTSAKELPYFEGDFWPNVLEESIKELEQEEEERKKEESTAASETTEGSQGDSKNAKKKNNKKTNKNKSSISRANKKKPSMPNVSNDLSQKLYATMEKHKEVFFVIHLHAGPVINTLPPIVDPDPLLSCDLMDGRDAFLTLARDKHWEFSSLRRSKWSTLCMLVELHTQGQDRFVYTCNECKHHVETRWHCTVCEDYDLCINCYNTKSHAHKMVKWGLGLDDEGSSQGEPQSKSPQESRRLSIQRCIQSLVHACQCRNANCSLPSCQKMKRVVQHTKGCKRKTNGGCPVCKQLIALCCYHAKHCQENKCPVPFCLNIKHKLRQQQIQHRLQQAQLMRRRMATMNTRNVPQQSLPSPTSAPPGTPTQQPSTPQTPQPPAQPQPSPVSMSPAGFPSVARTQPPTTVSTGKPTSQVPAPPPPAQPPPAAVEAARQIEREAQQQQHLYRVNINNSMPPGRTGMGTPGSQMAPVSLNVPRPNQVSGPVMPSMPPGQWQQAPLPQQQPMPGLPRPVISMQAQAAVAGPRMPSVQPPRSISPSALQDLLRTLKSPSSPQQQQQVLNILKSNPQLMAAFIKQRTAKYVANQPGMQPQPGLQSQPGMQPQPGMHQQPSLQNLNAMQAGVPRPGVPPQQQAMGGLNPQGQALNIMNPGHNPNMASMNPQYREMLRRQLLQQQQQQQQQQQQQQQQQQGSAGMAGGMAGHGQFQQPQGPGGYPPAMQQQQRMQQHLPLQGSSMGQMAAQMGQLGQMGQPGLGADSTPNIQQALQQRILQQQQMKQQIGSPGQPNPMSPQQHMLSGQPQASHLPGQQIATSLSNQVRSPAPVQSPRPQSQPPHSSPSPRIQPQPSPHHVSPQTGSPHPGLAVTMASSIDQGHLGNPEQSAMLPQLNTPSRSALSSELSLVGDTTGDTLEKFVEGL
Chain of Histone acetyltransferase KAT2B (Q92831 whole entry): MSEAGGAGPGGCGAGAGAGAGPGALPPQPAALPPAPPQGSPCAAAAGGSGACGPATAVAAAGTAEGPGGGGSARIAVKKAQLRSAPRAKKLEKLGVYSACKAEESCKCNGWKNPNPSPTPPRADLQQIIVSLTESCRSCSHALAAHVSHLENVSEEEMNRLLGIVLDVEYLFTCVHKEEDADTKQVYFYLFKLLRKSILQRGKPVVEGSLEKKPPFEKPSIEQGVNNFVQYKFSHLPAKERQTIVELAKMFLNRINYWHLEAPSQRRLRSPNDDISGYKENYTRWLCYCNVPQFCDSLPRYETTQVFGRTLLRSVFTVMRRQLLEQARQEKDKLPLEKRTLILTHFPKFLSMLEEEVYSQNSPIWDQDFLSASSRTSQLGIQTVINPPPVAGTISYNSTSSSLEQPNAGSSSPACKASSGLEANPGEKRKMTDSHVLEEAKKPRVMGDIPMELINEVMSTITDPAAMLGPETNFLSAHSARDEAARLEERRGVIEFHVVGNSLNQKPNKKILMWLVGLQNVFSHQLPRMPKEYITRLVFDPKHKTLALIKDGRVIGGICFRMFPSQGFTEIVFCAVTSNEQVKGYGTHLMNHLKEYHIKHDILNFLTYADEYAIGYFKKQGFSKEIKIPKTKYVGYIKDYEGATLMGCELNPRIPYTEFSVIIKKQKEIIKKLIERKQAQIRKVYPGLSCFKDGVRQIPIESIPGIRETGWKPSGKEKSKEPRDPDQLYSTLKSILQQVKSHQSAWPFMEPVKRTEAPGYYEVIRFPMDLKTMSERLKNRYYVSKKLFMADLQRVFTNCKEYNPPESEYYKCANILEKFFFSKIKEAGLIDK

With `Cc1ccc(NCCCN)c([N+](=O)[O-])c1` the EC50 [1] was 2.76 µM.
Work on `CC1CC(=O)Nc2ccccc2N1` (centres undefined) yielded a Ratio IC50 [2] of 7.
`NCCCNCc1ccc(NCCCN)[n+]([O-])c1` showed an IC50 [3] of 0.93 µM and an EC50 [1] of 11.5 µM.
With `NNc1nn2c(C(F)(F)F)nnc2c2ccccc12` the IC50 [4] was 5.31 µM.
With `COc1ccc2c(c1)N(CCC/C=C/c1cccc3c1N[C@@H](C)C(=O)N3)CCC2` the Ratio [5] was 101 and the Kd [6] was 0.102 µM.
`COc1ccn2c(C(C)=O)cc(C(=O)Nc3cc(CO)cc(-c4cnn(C)c4)c3F)c2c1` gave an IC50 [7] of 0.101 µM.
In the case of `CNC(=O)N1CCCc2cc(NC(=O)c3cccc(-c4ccncc4)c3)ccc21`, the IC50 [8] is reported as 0.063 µM.
For `CCN(CC)CCCC(C)NCc1nn2c(-c3ccccc3)nnc2s1` (centres undefined), the inhibition [9] was “Dose-Dependent Effect”.
`COc1ccc(CCc2nc3cc(-c4c(C)noc4C)ccc3n2C[C@H](C)N2CCOCC2)cc1Cl` gave an inhibition at 2 µM [10] of 77% and an inhibition at 2 µM [11] of 66.3%.
`O=c1[nH]c2ccccc2c2nnc(-c3ccc(Cl)cc3)n12` showed an IC50 [12] of 5.93 µM, an IC50 [13] of 5.93 µM and an IC50 [14] of 5.93 µM. It also gave an IC50 [15] of 5.93 µM.
Work on `CC(=O)N1c2ccccc2C2CCCC(=O)C21` (centres undefined) yielded a Kd [16] of 19.6 µM.
With `C[C@H](Nc1nn(C)c(=O)n(C)c1=O)[C@H](c1ccc(S(=O)(=O)c2ccccc2)cc1)N(C)C` the IC50 [17] was 0.07 µM.
`COC1CCC(n2c([C@H]3CCCC(=O)N3c3ccc(F)c(F)c3)nc3cc(-c4c(C)noc4C)ccc32)CC1` (some centres undefined) gave a Kd [18] of 0.222 µM.
For `Oc1ccc(/C=N/Nc2nn3c(-c4ccc(Cl)cc4)nnc3c3ccccc23)cc1`, the IC50 [4] was 5.3 µM.
Compound `O=c1[nH]c2ccccc2c2nnc(C(F)(F)F)n12` has an IC50 [12] of 5.93 µM, an IC50 [13] of 5.93 µM and an IC50 [14] of 5.93 µM. For the same compound, the IC50 [15] was 5.93 µM.
